From patent US20240277715A1, “COMBINATION THERAPIES COMPRISING A METTL3 INHIBITOR AND A FURTHER ANTICANCER AGENT” (Storm Therapeutics Limited, priority 2021, published 2024)

Tests used:
MOLM13 AML cell line = test: AML cell viability, CellTiter-Glo combination matrix, MOLM13; type: cell-based; details: MOLM13 AML cell line
Procedure: The sensitivity of AML cell lines to combinations of METTL3 inhibitor and standards of care was determined as described. Dose response curves of venetoclax were determined either alone or in the presence of different concentrations of METTL3 inhibitor that are known to be active in cells.
Synergistic interactions occur when the IC50 value decreases in the presence of METTL3 inhibitor. […] Antagonistic interactions occur when the IC50 value increases in the presence of METTL3 inhibitor.
24 h before cell treatment, homogenize, stain with Trypan blue and count viable cells using CellOMeter Auto T4. Dilute cells in media at 400 000 cells/ml to ensure an exponential growth the day after.
On treatment day, homogenize, stain with Trypan blue and count viable cells using CellOMeter Auto T4. Dilute to the proper cell seeding density according to Table 6 in cell media.
• Dispense drug (see Table 7) and METTL3 inhibitor in semi-log dose-response matrix and DMSO in 384-well plates using D300e Nanodispenser (Tecan). • 6× compound solution preparation: add 40 μL of cell medium in compound-containing plates and homogenize using the ViaFlo device (Integra) • Dispense 30 μl of cell suspension per well in three replicate 384-well white Ultra-Low-Attachment plates (Sbio) using ViaFlow device (Integra) • Transfer 6 μL of the 6× compound solution in each 30 μL cell suspension-containing plate. • Incubate at 37° C. 5% CO2 for 3 to 5 days.
• Add 35 μL CellTiter-Glo (Promega) in wells (vol/vol) using ViaFlo device (Integra). • Incubate at RT 10 min in the dark, with agitation the first minute, and read luminescence on the Ensight device (Perkin Elmer).
Raw data were converted to % viability by normalization to DMSO controls. IC50 determination was performed using GraphPad Prism and fitting curves to the standard nonlinear regression four parameter equation (Y=Bottom+(Top-Bottom)/(1+(IC50/X)^HillSlope)) least squares method, and synergy was assessed by comparison of IC50 values of the standard of care in the presence or absence of different concentrations of METTL3 inhibitor (see FIGS. 12 to 19).

EMT6 mouse breast cancer = test: Subcutaneous EMT6 breast cancer syngeneic model, anti-tumour efficacy; type: in vivo; details: 10 per group
Source text: The in vivo effect of METTL3 inhibition in combination with anti-PD1 immune checkpoint inhibitor was investigated using syngeneic mouse tumour models in immune-competent hosts. Mouse tumour models can be grown in appropriate host strains and are widely used to investigate the effects of therapeutic agents on the immune system and cancer growth. There are a limited range of mouse syngeneic tumour models available, far fewer than human cell lines, and they are widely used in the art to support potential clinical utility of immune stimulatory approaches across multiple indications. We exemplify the potential role of STM3480 and combinations with immune checkpoint inhibitors such as anti-PD-1 antibodies in multiple tumour models including A20 (murine B cell lymphoma), EMT-6 (murine breast cancer) and CT-26 (murine colorectal cancer).
The objective of this study is to assess the anti-tumour efficacy of STM3480 in combination with anti-PD1 in subcutaneous EMT6 mouse breast cancer model in female BALB/c mice.
EMT6 (#ATCC CRL-2755) mouse breast cancer cells were cultured in (Waymouth's MB 752/1 Medium with 2 mM L-glutamine, 85%; foetal bovine serum (non-heat inactivated), 15%) media. […]
Tumours were measured three times a week and tumour volumes estimated using the formula 0.5 (L×W^2) by measuring the tumour in two dimensions using electronic callipers for the duration of the study. […]

[1] = system: SKOV3 human ovarian cancer cells; test: Tumour killing assay (TKA), SKOV3 spheroid / PBMC co-culture; type: cell-based; details: STM3480 0.05 micromolar, FIG. 1 and 2
Procedure: This experiment evaluates the effects of human donor Peripheral Blood Mononuclear Cells (PBMCs) to attack and kill fluorescently-labelled tumour cells in a co-culture assay. Briefly, test agents are incubated at different concentrations with SKOV3 human ovarian cancer cells in the presence or absence of human donor PBMCs and tumour growth is monitored continuously by real time imaging of the NucLight Red-labelled SKOV3 cells for several days.
NucLight Red (Incucyte, Essen Biosciences)-transduced SK-OV-3 (SK-OV-3-NLR) cells were transferred into Ultra-low attachment 96 well plates with spontaneous spheroid formation occurring over 48 hours. Peripheral blood mononuclear cells (PBMC) were isolated from healthy single donor buffy coats by density separation. Prior to co-culture of SK-OV-3-NLR spheroids with PBMC, SK-OV-3-NLR spheroids were treated with 10 ng/ml of interferon gamma (IFNγ). All treatments, including STM3480 and Pembrolizumab, were added at the point of co-culture in a final total volume of 200 μl/per well. Assay plates were transferred into an IncuCyte S3 and images were collected every 2 hours for 7 days. Following experimental completion, an analysis definition was applied to quantify the Total NLR Integrated Intensity present on a per well basis. Changes in spheroid size were quantified by plotting Total NLR Integrated Intensity against time.

Structure (SMILES): O=C(NCc1ccc2cc(CNCC3CCC3)[nH]c2c1)c1cc(=O)n2ccccc2n1 [STM3480, N-[(2-{[(cyclobutylmethyl)amino]methyl}-1H-indol-6-yl)methyl]-4-oxo-4H-pyrido[1,2-a]pyrimidine-2-carboxamide]
- interaction with venetoclax (MOLM13 AML cell line): synergistic
- Mean tumour volume d21 (EMT6 mouse breast cancer; EMT6, female BALB/c mice, STM3480 50 mg/kg p.o., anti PD1 10 mg/kg i.p. BIW, up to 3 weeks): 141 mm3
- No. mice with complete regressions (EMT6 mouse breast cancer; EMT6): 1
- tumour viability (normalized NucLight Red [NLR] fluorescence) against time [1]: greater anti-tumour effect compared to vehicle
